Data set [1] concerns HCT116 colorectal cancer cell line. In words: Antiproliferative activity, HCT116. The format is cell-based. As to conditions: Homo sapiens, HCT-116. How it is done:
(§1) A study was conducted to evaluate the inhibitory activity of compounds of Formula (I) in inhibiting HDAC6, antiproliferative activity of test compounds in suppressing cancer cell growth, and selectivity of inhibiting HDAC6 over other HDAC isoforms.
(§2) The study was performed according to the protocol reported in Hsieh et al., Cell Death and Disease, 2014, April; 5:e1166.
(§3) Shown in Table 2 below are antiproliferative activities (measured by their half maximal concentration for inhibiting cell growth, i.e., GI50) of the test compounds against various cancer cell lines.

The test system of another data set is HL60 leukemia cell line. Kind of data set: Antiproliferative activity, HL60. The data set is classed as cell-based. As to conditions: Homo sapiens, HL-60. How it is done:
as §1, §2, §3

In data set [2] the test system is A549 lung cancer cell line. Kind of data set: Antiproliferative activity, A549. The format is cell-based, human. As to conditions: Homo sapiens. How it is done:
as §1, §2, §3

Data set [3] relates to PC-3 prostate cancer cell line. In words: Antiproliferative activity, PC-3. The format is cell-based, human. As to conditions: Homo sapiens. Here is the method: as §1, §2, §3
Data set [4] relates to HL-60 Acute promyelocytic leukemia. In words: Tumor growth inhibition, HL-60 xenograft. The format is in vivo, athymic nude mice. As to conditions: 50 mg/kg, qd, intraperitoneal. Here is the method: (§4) An in vivo study was conducted to evaluate the efficacy of compounds of Formula (I) in suppressing tumor growth in multiple human cancer types.
(§5) Eight-week-old athymic nude mice were group-housed under conditions of constant photoperiod (12 h light/12 h dark at 21-23° C. and 60-85% humidity) with ad libitum access to sterilized food and water. All animal experiments followed ethical standards, and protocols were reviewed and approved by the Animal Use and Management Committee of National Taiwan University. Each mouse was inoculated subcutaneously with 1×10^6˜1×10^7 human cancer cells in a total volume of 0.1 mL serum-free medium containing 50% Matrigel (BD Biosciences). As tumors became established (˜100 mm^3), mice were randomized to various groups to be treated with pre-determined materials (n=6-8/group): (i) control group: 0.5% DMSO/0.5% Cremophor/90% D5W and (ii) treatment groups: Compounds 12 and 28 at pre-determined doses daily. Mice received treatment by intraperitoneal injection for the duration of the study. Tumors were measured weekly using calipers. Tumor size, in mm^3, was calculated according to the formula: Tumor volume=(w^2×l)/2, where w and 1 respectively represent the width and length (both in mm) of the tumor.

Data set [5] concerns scopolamine-induced memory deficit. In words: Water maze test, scopolamine-treated rats. The data set is classed as in vivo. As to conditions: gavage twice daily for seven days; scopolamine 1.5 mg/kg i.p. How it is done: An in vivo study was conducted to evaluate the efficacy of compounds of Formula (I) in improving memory deficits associated with Alzheimer's disease.
(§6) Compound 12, Compound 28, suberanilohydroxamic acid (50 mg/kg) or vehicle was given to rats by gavage twice daily for seven days prior to behavioral experiments. On the day conducting a behavior assessment, rats in all groups except the control group were administered scopolamine (1.5 mg/kg) by intraperitoneal injection for 30 minutes before the assessment, then a water maze test or an elevated plus maze test was performed.

The next data set deals with T1, HDAC6 (Homo sapiens, UniProt Q9UBN7).
T1 construct: purchased BPS Bioscience Corp
T1 sequence (Q9UBN7 1-1215): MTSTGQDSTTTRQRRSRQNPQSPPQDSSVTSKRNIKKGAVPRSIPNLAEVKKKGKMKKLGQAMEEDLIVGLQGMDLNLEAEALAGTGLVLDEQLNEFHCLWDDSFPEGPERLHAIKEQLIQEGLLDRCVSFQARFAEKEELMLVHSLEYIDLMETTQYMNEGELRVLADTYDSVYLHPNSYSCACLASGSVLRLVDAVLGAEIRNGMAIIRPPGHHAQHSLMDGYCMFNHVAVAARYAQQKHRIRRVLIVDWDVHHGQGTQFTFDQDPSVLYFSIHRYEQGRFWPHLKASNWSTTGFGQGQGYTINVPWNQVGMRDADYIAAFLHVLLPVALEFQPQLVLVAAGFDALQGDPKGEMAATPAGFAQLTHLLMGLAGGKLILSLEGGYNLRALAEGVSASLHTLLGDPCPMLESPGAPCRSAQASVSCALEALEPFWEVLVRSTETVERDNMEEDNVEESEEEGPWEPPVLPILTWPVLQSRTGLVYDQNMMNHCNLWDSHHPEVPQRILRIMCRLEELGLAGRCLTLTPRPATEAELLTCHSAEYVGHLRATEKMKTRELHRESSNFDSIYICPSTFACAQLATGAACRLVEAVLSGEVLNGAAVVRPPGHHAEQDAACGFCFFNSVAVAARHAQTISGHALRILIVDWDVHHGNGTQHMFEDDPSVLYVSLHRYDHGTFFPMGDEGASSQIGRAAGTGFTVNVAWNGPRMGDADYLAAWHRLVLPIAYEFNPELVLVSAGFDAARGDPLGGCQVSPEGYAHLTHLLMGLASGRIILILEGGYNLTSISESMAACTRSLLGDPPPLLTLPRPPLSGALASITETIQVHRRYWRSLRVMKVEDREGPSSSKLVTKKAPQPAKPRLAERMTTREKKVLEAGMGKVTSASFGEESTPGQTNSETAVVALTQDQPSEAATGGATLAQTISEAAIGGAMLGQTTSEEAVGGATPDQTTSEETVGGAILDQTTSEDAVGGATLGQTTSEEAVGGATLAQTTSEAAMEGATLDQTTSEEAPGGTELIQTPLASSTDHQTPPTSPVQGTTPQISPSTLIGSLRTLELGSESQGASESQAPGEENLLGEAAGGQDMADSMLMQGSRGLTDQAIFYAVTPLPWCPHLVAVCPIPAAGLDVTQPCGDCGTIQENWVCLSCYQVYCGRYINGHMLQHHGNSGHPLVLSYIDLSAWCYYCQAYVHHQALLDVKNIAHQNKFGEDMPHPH
Kind of data set: Fluorogenic HDAC assay, HDAC6. The data set is classed as biochemical. The source says:
(§7) Of note, there are eighteen human HDACs. Eleven of them, designated as HDAC1-11, are zinc-dependent. Seven of them, designated as Sirt1-7, are NAD+-dependent.
(§8) Fluorogenic HDAC assay kits were used to assess the ability of HDAC inhibitors to inhibit deacetylation of lysine residues on a substrate by recombinant proteins HDAC1, 3, 4, 5, 6, 7, 8, 9 and Sirt1 according to the manufacturer's instructions (BPS Bioscience Corp., San Diego, Calif., USA).

Data set [6] in a line: Safety in ICR mice, 7-day intraperitoneal dosing. The data set is classed as in vivo. To be noted: 50, 100, and 200 mg/kg intraperitoneally once a day for 7 days, monitored another 7 days. Here is the method: In addition, both Compounds 12 and 28 were studied to evaluate their safety in animals.
[…]. The animals were dosed intraperitoneally once a day for 7 days and then monitored for another 7 days. The animals were weighed daily for 1 week and then twice weekly.

Another data set has as its target T2, HDAC1 (Homo sapiens, UniProt Q13547).
T2 construct: purchased BPS Bioscience Corp
Kind of data set: Fluorogenic HDAC assay, HDAC1. The data set is classed as biochemical. To be noted: recombinant HDAC1; read-out: Enzyme IC50 HDAC1.
Description: as §7, §8

The subject of data set [7] is Aβ42 production in pCAX APP 695 plasmid-transfected Neuro 2a and SH—SYSY cells. Kind of data set: Aβ42 production in cell culture supernatants. The data set is classed as cell-based. To be noted: pCAX APP 695 transfected Neuro 2a and SH—SYSY cells; 0.1-10 μM, 24 hours. Here is the method: (§9) A study was conducted to evaluate the effect of compounds of Formula (I) in amyloid precursor protein (APP) levels and Aβ42 production.
Moreover, neuro 2a or SH—SYSY cells (1×10^5) were transfected with pCAX APP 695 plasmid for 24 hours, followed by incubation with Compound 12 or Compound 28 (0.1-10 μM) for another 24 hours. Cell culture supernatants were assayed for Aβ42 production.

Data set [8] deals with APP in pCAX APP 695 plasmid-transfected Neuro 2a cells. Kind of data set: Amyloid precursor protein (APP) levels, Western blot. To be noted: pCAX APP 695 transfected neuro 2a cells; 0.1-10 μM, 24 hours. The format is cell-based. Here is the method:
as §9
Neuro 2a cells (1×10^6) in 6-well plates were transfected with pCAX APP 695 plasmid for 24 hours, then incubated for another 24 hours with Compound 12, Compound 28, or tubasatin A (0.1-10 μM). Cells were then harvested and cell lysates were prepared for Western blot analysis of the APP proteins.

Data set [9] relates to scopolamine-induced memory deficit. In words: Elevated plus maze test, scopolamine-treated rats. The data set is classed as in vivo. To be noted: gavage twice daily for seven days; scopolamine 1.5 mg/kg i.p. How it is done:
as §6, with “An in vivo study was conducted to evaluate the efficacy of compounds of Formula (I) in improving memory deficits associated with Alzheimer's disease. Compound 12,” for “Compound 12,”, “was performed. […] The significant reduction in transfer latency time indicated improvement in memory.” for “was performed.”

The subject of data set [10] is BJAB Burkitt lymphoma-derived B-cell. In words: Tumor growth inhibition, BJAB xenograft. The format is in vivo, athymic nude mice. As to conditions: 50 mg/kg, qd, intraperitoneal. Here is the method: as §4, §5
Data set [11] concerns MDA-MB-231 Breast cancer cell line. In words: Antiproliferative activity, MDA-MB-231. The data set is classed as cell-based, human. To be noted: MDA-MB-231; mesylate. How it is done: as §1, §2, §3
For data set [12], the system named is T98 Glioblastoma cell line. Kind of data set: Antiproliferative activity, T98. The format is cell-based, human. As to conditions: T98; mesylate. Here is the method:
as §1, §2, §3

Counter-ions that a name gives are not always drawn.

T2 sequence (Q13547 whole entry): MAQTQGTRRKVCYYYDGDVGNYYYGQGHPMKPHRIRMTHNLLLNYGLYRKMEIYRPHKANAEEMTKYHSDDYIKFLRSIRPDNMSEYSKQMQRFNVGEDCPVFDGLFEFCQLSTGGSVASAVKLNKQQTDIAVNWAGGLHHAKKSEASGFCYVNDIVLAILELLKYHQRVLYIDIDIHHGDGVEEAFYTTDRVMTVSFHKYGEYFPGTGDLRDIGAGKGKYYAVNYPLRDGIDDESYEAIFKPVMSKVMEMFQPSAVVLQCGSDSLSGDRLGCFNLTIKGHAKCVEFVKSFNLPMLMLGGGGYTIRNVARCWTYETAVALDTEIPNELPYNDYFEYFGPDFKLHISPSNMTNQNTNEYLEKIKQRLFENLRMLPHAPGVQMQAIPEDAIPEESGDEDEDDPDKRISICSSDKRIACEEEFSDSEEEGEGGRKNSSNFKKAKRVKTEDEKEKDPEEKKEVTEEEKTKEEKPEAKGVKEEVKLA

One may read the GI50 as the concentration at which growth is held to half of that of the control. Regarding `O=C(NO)c1ccc(CNc2nccc3ccccc23)cc1` [Compound 61, N-hydroxy-4-((isoquinolin-1-ylamino)methyl)benzamide], the values for the GI50 (in data set [1]; in the data set on HL60 leukemia cell line) were 660 ± 100 nM and 1170 ± 230 nM, respectively.
As to `O=C(NO)c1ccc(CNc2cncc3ccccc23)cc1` [Compound 63, N-hydroxy-4-((isoquinolin-4-ylamino)methyl)benzamide], the GI50 in data set [1] came to 1200 ± 140 nM; in the data set on HL60 leukemia cell line, 1960 ± 160 nM.
In general, IC50 refers to the midpoint of a concentration-inhibition curve. In the case of `O=C(NO)c1ccc(CNc2cccc3ncccc23)cc1` [Compound 12, N-hydroxy-4-((quinolin-5-ylamino)methyl)benzamide], the GI50 is 5530 ± 240 nM in data set [2] and 3280 ± 110 nM in [3]. Moreover, the “% TGI” value in data set [4] was 72.2%; in data set [10] it was 64.5%. In addition, the “time spent in the correct quadrant (water maze)” value in data set [5] is “markedly reverse this effect”. Besides, the IC50 against HDAC6 came out at 2.73 nM; on HDAC1 it was 2650 nM. Besides, the tolerability result in data set [6] is reported as “well tolerated”. For the same molecule, the Aβ42 production entry in data set [7] was “decreased Aβ42 production”. In data set [8], the APP expression entry is “markedly reduced the APP expression”. In addition, in data set [9], the “transfer latency time (elevated plus maze)” value is on record as “significantly rescued scopolamine-mediated increase of transfer latency time”.
`O=C(NO)c1ccc(CNc2cccc3cccnc23)cc1` [Compound 28-mesylate, N-Hydroxy-4-(quinolin-8-ylaminomethyl)-benzamide mesylate]: the GI50 was 1360 ± 250 nM in [11] and 10800 ± 830 nM in data set [12].
For the molecule `O=C(NO)c1ccc(Nc2cccc3cccnc23)cc1` [Compound 59, N-hydroxy-4-(quinolin-8-ylamino)benzamide], the GI50 in data set [1] amounted to 3320 ± 210 nM; with HL60 leukemia cell line, 6640 ± 690 nM.
In the case of `O=C(NO)c1ccc(CNc2cccc3nccnc23)cc1` [Compound 66, N-hydroxy-4-((quinoxalin-5-ylamino)methyl)benzamide], the GI50 in data set [1] came to 1950 ± 210 nM; with HL60 leukemia cell line, 5580 ± 150 nM.

Source of the values: patent US11427544B2, “Histone deacetylase 6 inhibitors and use thereof” (TAIPEI MEDICAL UNIVERSITY, priority 2016, dated 2022).
